Strand notation (5' to 3'): a small letter for the sugar, then the base; units joined by * are phosphorothioate-linked, units joined directly phosphodiester-linked; [ ] holds rarer units or linkages, { } end groups; capitals alone tell only the bases. HELM strings list units from the 5' end as sugar, base in round brackets, then linkage (d deoxyribose, r ribose, m 2'-O-methyl, p phosphodiester). [sp] = phosphorothioate linkage; d = 2'-deoxy (DNA); m = 2'-O-methyl
Tests used:
EGFR [1] = test: HEK293-TLR8, 100 nM ASO, then resiquimod
EGFR [2] = test: HEK293-TLR7, 100 nM ASO, then resiquimod
CDKN2B-AS1 [3] = test: HEK293-TLR8, 100 nM ASO, then resiquimod
CDKN2B-AS1 [4] = test: HEK293-TLR7, 100 nM ASO, then resiquimod

Substance | TLR8 potentiation (NF-kB luciferase) (fold of resiquimod alone) (EGFR [1]) | TLR7 signal (NF-kB luciferase) (% of resiquimod alone) (EGFR [2]) | TLR8 potentiation (NF-kB luciferase) (fold of resiquimod alone) (CDKN2B-AS1 [3]) | TLR7 signal (NF-kB luciferase) (% of resiquimod alone) (CDKN2B-AS1 [4])
mA*mU*mG*mU*mC*dC*dC*dG*dC*dC*dA*dC*dT*dG*dG*mA*mU*mG*mC*mU | 0.84 | 71.7 |  | 
mA*mU*mG*mC*mC*dA*dT*dC*dC*dA*dC*dT*dT*dG*dA*mU*mA*mG*mG*mC | 1.16 | 29.3 |  | 
mU*mC*mG*mG*mC*dA*dT*dC*dC*dA*dC*dC*dA*dC*dG*mU*mC*mG*mU*mC | 1.39 | 53.7 |  | 
mU*mG*mA*mA*mG*dT*dA*dA*dA*dA*dA*dT*dC*dA*dA*mU*mA*mG*mC*mG | 1.96 | 30 |  | 
mG*mU*mA*mA*mA*dA*dA*dG*dC*dT*dT*dT*dT*dG*dA*mA*mG*mU*mG*mA | 1.62 | 29.1 |  | 
mC*mA*mG*mG*mU*dG*dT*dC*dC*dT*dT*dG*dC*dA*dC*mG*mU*mG*mG*mC | 1.95 | 55.4 |  | 
mA*mA*mA*mA*mA*dT*dT*dA*dC*dT*dT*dT*dA*dA*dA*mA*mG*mC*mA*mA | 1.32 | 71.1 |  | 
mG*mU*mC*mC*mU*dT*dG*dC*dA*dC*dG*dT*dG*dG*dC*mU*mU*mC*mG*mU | 0.8 | 31.5 |  | 
mC*mU*mU*mG*mC*dA*dC*dG*dT*dG*dG*dC*dT*dT*dC*mG*mU*mC*mU*mC | 3.06 | 28.1 |  | 
mG*mG*mG*mA*mC*dA*dC*dT*dT*dC*dT*dT*dC*dA*dC*mG*mC*mA*mG*mG | 1.24 | 52.1 |  | 
mA*mG*mG*mU*mG*dT*dC*dC*dT*dT*dG*dC*dA*dC*dG*mU*mG*mG*mC*mU | 1.27 | 76.4 |  | 
mA*mA*mG*mG*mC*dC*dC*dT*dT*dC*dG*dC*dA*dC*dT*mU*mC*mU*mU*mA | 1.49 | 31.2 |  | 
mU*mA*mA*mA*mA*dG*dG*dA*dG*dA*dA*dA*dA*dC*dT*mA*mU*mC*mU*mU | 1.69 | 58.2 |  | 
RNA1{m(G)[sp].m(U)[sp].m(C)[sp].m(A)[sp].m(A)[sp].d(A)[sp].d(C)[sp].d(C)[sp].d(T)[sp].d(A)[sp].d(G)[sp].d(A)[sp].d(A)[sp].d(A)[sp].d(G)[sp].m(A)[sp].m(A)[sp].m(G)[sp].m(C)[sp].m(A)}$$$$ |  |  | 1.6 | 23.6
RNA1{m(C)[sp].m(U)[sp].m(U)[sp].m(C)[sp].m(A)[sp].d(C)[sp].d(A)[sp].d(T)[sp].d(C)[sp].d(C)[sp].d(A)[sp].d(A)[sp].d(G)[sp].d(A)[sp].d(C)[sp].m(A)[sp].m(G)[sp].m(C)[sp].m(A)[sp].m(A)}$$$$ |  |  | 2.26 | 55
RNA1{m(U)[sp].m(U)[sp].m(A)[sp].m(A)[sp].m(A)[sp].d(T)[sp].d(A)[sp].d(A)[sp].d(T)[sp].d(C)[sp].d(T)[sp].d(A)[sp].d(G)[sp].d(T)[sp].d(T)[sp].m(U)[sp].m(G)[sp].m(A)[sp].m(A)[sp].m(G)}$$$$ |  |  | 3.96 | 25.7
RNA1{m(G)[sp].m(U)[sp].m(G)[sp].m(U)[sp].m(U)[sp].d(T)[sp].d(T)[sp].d(T)[sp].d(A)[sp].d(A)[sp].d(T)[sp].d(T)[sp].d(T)[sp].d(T)[sp].d(G)[sp].m(U)[sp].m(A)[sp].m(G)[sp].m(A)[sp].m(G)}$$$$ |  |  | 1.31 | 23.6
RNA1{m(G)[sp].m(G)[sp].m(A)[sp].m(C)[sp].m(A)[sp].d(C)[sp].d(T)[sp].d(T)[sp].d(A)[sp].d(G)[sp].d(C)[sp].d(T)[sp].d(G)[sp].d(T)[sp].d(T)[sp].m(C)[sp].m(C)[sp].m(U)[sp].m(C)[sp].m(G)}$$$$ |  |  | 1.13 | 45.8
RNA1{m(A)[sp].m(G)[sp].m(G)[sp].m(A)[sp].m(U)[sp].d(T)[sp].d(A)[sp].d(A)[sp].d(A)[sp].d(A)[sp].d(C)[sp].d(A)[sp].d(G)[sp].d(A)[sp].d(T)[sp].m(U)[sp].m(A)[sp].m(A)[sp].m(U)[sp].m(A)}$$$$ |  |  | 2.19 | 36.3
RNA1{m(G)[sp].m(A)[sp].m(U)[sp].m(U)[sp].m(A)[sp].d(A)[sp].d(A)[sp].d(A)[sp].d(C)[sp].d(A)[sp].d(G)[sp].d(A)[sp].d(T)[sp].d(T)[sp].d(A)[sp].m(A)[sp].m(U)[sp].m(A)[sp].m(C)[sp].m(A)}$$$$ |  |  | 0.73 | 21.9
RNA1{m(U)[sp].m(A)[sp].m(A)[sp].m(A)[sp].m(A)[sp].d(T)[sp].d(A)[sp].d(A)[sp].d(G)[sp].d(G)[sp].d(G)[sp].d(G)[sp].d(A)[sp].d(A)[sp].d(T)[sp].m(A)[sp].m(G)[sp].m(G)[sp].m(G)[sp].m(G)}$$$$ |  |  | 1.28 | 41
RNA1{m(G)[sp].m(U)[sp].m(C)[sp].m(U)[sp].m(C)[sp].d(T)[sp].d(A)[sp].d(C)[sp].d(T)[sp].d(G)[sp].d(T)[sp].d(T)[sp].d(A)[sp].d(C)[sp].d(C)[sp].m(U)[sp].m(C)[sp].m(U)[sp].m(G)[sp].m(A)}$$$$ |  |  | 2.41 | 19.2
RNA1{m(G)[sp].m(C)[sp].m(A)[sp].m(G)[sp].m(U)[sp].d(C)[sp].d(T)[sp].d(C)[sp].d(C)[sp].d(A)[sp].d(T)[sp].d(G)[sp].d(T)[sp].d(C)[sp].d(C)[sp].m(C)[sp].m(A)[sp].m(G)[sp].m(G)[sp].m(C)}$$$$ |  |  | 1.79 | 20.3
